Data as given in US4405637A, “β-Lactam antibacterial agents” (Beecham Group Limited, priority 1977, dated 1983).
In brackets after ≈: the same amount, converted by molar mass.

How the values were obtained:
Assay in all cases: inhibition of bacterial growth, MIC (agar)
Format in all cases: cell-based
Strep pyogenes CN10 = conditions: Streptococcus pyogenes, Staph. pyogenes CN 10 (so in the source), read-out: concentration required to inhibit growth (MIC)
Proteus mirabilis C977 = conditions: read-out: concentration required to inhibit growth (MIC)
E. coli 0111 = conditions: Escherichia coli, read-out: concentration required to inhibit growth (MIC)
Klebsiella aerogenes A = conditions: read-out: concentration required to inhibit growth (MIC)
Staph. aureus Oxford = conditions: Staphylococcus aureus, read-out: concentration required to inhibit growth (MIC)
Staph. aureus 1517 = conditions: Staphylococcus aureus, read-out: concentration required to inhibit growth (MIC)
[1] = tested on: Salmonella typhimurium CT10; conditions: Salmonella enterica, read-out: concentration required to inhibit growth (MIC)
Staph. aureus Russell = conditions: Staphylococcus aureus, read-out: concentration required to inhibit growth (MIC)
Shigella sonnei MB 11967 = conditions: MB11967, read-out: concentration required to inhibit growth (MIC)
Proteus morganii I 580 = conditions: Morganella morganii, I580, read-out: concentration required to inhibit growth (MIC)
Serratia marcescens US20 = conditions: read-out: concentration required to inhibit growth (MIC)
Proteus rettgeri WM16 = conditions: Providencia rettgeri, read-out: concentration required to inhibit growth (MIC)
Bacillus subtilis A = conditions: read-out: concentration required to inhibit growth (MIC)
Citrobacter freundii E8 = conditions: read-out: concentration required to inhibit growth (MIC)
Enterobacter cloacae N1 = conditions: read-out: concentration required to inhibit growth (MIC)
Salmonella typhimurium = conditions: Salmonella enterica, Salmonella typhimurium (strain not given), read-out: concentration required to inhibit growth (MIC)

Row | SMILES | MIC (Strep pyogenes CN10) [µg/mL] | MIC (Proteus mirabilis C977) [µg/mL] | MIC (E. coli 0111) [µg/mL] | MIC (Klebsiella aerogenes A) [µg/mL] | MIC (Staph. aureus Oxford) [µg/mL] | MIC (Staph. aureus 1517) [µg/mL] | MIC [1] [µg/mL] | MIC (Staph. aureus Russell) [µg/mL] | MIC (Shigella sonnei MB 11967) [µg/mL] | MIC (Proteus morganii I 580) [µg/mL] | MIC (Serratia marcescens US20) [µg/mL] | MIC (Proteus rettgeri WM16) [µg/mL] | MIC (Bacillus subtilis A) [µg/mL] | MIC (Citrobacter freundii E8) [µg/mL] | MIC (Enterobacter cloacae N1) [µg/mL] | MIC (Salmonella typhimurium) [µg/mL]
1 | COC(=O)/C=C/C[C@@H]1C(=O)N2C(C(=O)OC3OC(=O)c4ccccc43)=CC[C@H]12 (relative stereo) [Compound 41, Phthalidyl 6-(3-methoxycarbonyl-2-propen-1-yl)-7-oxo-1-azabicyclo[3,2,0]hept-2-ene-2-carboxylate] | ≤ 0.8 | 100 (≈ 261 µM) | 50 (≈ 130 µM) | 50 (≈ 130 µM) | ≤ 0.8 | ≤ 0.8 | 50 (≈ 130 µM) | ≤ 0.8 | 50 (≈ 130 µM) | – | – | – | – | – | – | –
2 | N#C/C=C/C[C@@H]1C(=O)N2C(C(=O)OCc3ccccc3)=CC[C@H]12 (relative stereo) [Compound 56, Benzyl 6-(3-cyano-2-propen-1-yl)-7-oxo-1-azabicyclo[3,2,0]hept-2-ene-2-carboxylat] | – | 20 (≈ 64.9 µM) | 20 (≈ 64.9 µM) | 20 (≈ 64.9 µM) | ≤ 2 | ≤ 2 | 20 (≈ 64.9 µM) | ≤ 2 | 20 (≈ 64.9 µM) | 20 (≈ 64.9 µM) | 20 (≈ 64.9 µM) | 20 (≈ 64.9 µM) | 20 (≈ 64.9 µM) | 20 (≈ 64.9 µM) | 20 (≈ 64.9 µM) | –
3 | CC(C)(O)[C@@H]1C(=O)N2C(C(=O)OCc3ccccc3)=CC[C@H]12 (relative stereo) [Example 4 cis-isomer, Benzyl 6-(2-hydroxy-2-propyl)-7-oxo-1-azabicyclo[3,2,0]hept-2-ene-2-carboxylate] | – | – | – | ≤ 2 | ≤ 2 | – | – | ≤ 2 | ≤ 2 | – | 20 (≈ 66.4 µM) | – | – | – | 20 (≈ 66.4 µM) | –
4 | N#C/C=C/C[C@@H]1C(=O)N2C(C(=O)OC3OC(=O)c4ccccc43)=CC[C@H]12 (relative stereo) [Compound 61, Phthalidyl 6-(3-cyano-2-propen-1-yl)-7-oxo-1-azabicyclo[3.2.0]hept-2-ene-2-carboxylat] | – | – | – | – | – | – | – | – | – | – | – | – | – | – | – | 7 (≈ 20 µM)
